# Literature values, collected in patent US12379360B2, “Detection system for an electronic nose allowing a physicochemical classification of odours and electronic nose comprising such a system” (COMMISSARIAT À L'ÉNERGIE ATOMIQUE ET AUX ÉNERGIES …, priority 2019, dated 2025).
# What was measured:
# [1] = scale of R. M. Sweet and D. Eisenberg, reference [4]
# [2] = pure compound
# [3] = n-octanol/water partition coefficient
SMILES,hydrophobicity index [1],n (refractive index) [2],logP [3]
"CCCSCCC [DPS, dipropylsulphide]",,1.435,0.9
"NCCCCN [DAB, 1,4-diaminobutane]",,1.457,−0.9
"CSC [DMS, dimethylsulphide]",,1.4487,2.7
"CN(C)C [TMA, trimethylamine]",,1.3631,0.3
"NCCCCCN [DAP, 1,5-diaminopentane]",,1.458,−0.6

# Further lines, results first:
hydrophobicity index [1],n (refractive index) [2],logP [3],SMILES
−0.74,,,NC(=O)C[C@H](N)C(=O)O [asparagine]
0.12,,,O=C(O)[C@@H]1CCCN1 [proline]
,1.411,1.5,"CCCCCN [n-PA, n-pentylamine]"
,1.401,1.4,"CCN(CC)CC [TEA, triethylamine]"
